Measurements taken from ChEMBL document CHEMBL1150190, “Lyngbyatoxins B and C, two new irritants from Lyngbya majuscula” (J Nat Prod, 1990).

Tests used:
[1] = Displacement of [3H]12-O-tetradecanoyl-phorbol-13-acetate from TPA receptor
Mus musculus = organism: Mus musculus; experiment: Toxicity in mouse by ear irritant test; type: organism-based; details: in vivo

| Structure (SMILES) | ED50 [1] [nM] | Activity (Mus musculus) |
| --- | --- | --- |
| C=C[C@@](C)(CCC(O)C(=C)C)c1ccc2c3c(c[nH]c13)C[C@@H](CO)NC(=O)[C@H](C(C)C)N2C (some centres undefined) [LYNGBYATOXI B] | 2200 | Toxic |
| C=C[C@@](C)(C/C=C/C(C)(C)O)c1ccc2c3c(c[nH]c13)C[C@@H](CO)NC(=O)[C@H](C(C)C)N2C [LYNGBYATOXIN C] | 200 | Toxic |
